From patent publication US11530388B2, “Methods of engineering human induced pluripotent stem cells to produce liver tissue” (University of Pittsburgh—Of the Commonwealth System of …, priority 2017, dated 2022) come the findings set out here.

Assay [1] has as its system Untransfected HEK293 cells. Briefly: Caspase 3/7 Assay after AP1903 stimulation of untransfected control cells. The format is cell-based, human. As to conditions: untransfected HEK293 cells treated with AP1903. The method, then:
(§1) HEK293 cells are transfected with pMSCV-F-del-Casp9_IRES-GFP (Addgene). • To assess transfection efficiency, cells are co-transfected with a TagRFP control plasmid ( 1/10 of total amount of DNA). • On day 3 transfected cells and negative control are monitored, counted and seeded (1E04 cells/96-well) for Caspase 3/7 Assay (Promega; G8091) Per Transfection/Negative Control cells were seeded as follows: • Per concentration small molecule (chemical inducer of dimerization) AP1903 (ApexBio) two wells, the same amount for negative control. For shuttle control, also wells per concentration are seeded. • On day 4, stimulation with AP1903 starts (0; 0,1; 1; 10 nmol/1). Shuttle control includes cells treated with ethanol only. T=0 h was measured immediately and T=24 h is measured as end point. (FIG. 13) • iCasp9-IRES-GFP construct is cloned with the rat albumin promoter pEAlb123. • iCasp9 expression (mRNA) is quantified in H4-II-E-C3 by qRT-PCR. Cells are transfected with plasmids pEAlb123-iCasp9-IRES-GFP and pcDNA3-CMV-eGFP (positive control). • Cells are harvested and RNA is isolated. iCASP9 and eGFP-specific PCR primers are used to measure expression (FIG. 14).

The subject of assay [2] is pMSCV-F-del Casp9-IRES-GFP transfected HEK293 cells (iCasp9). Briefly: Caspase 3/7 Assay after AP1903 stimulation of iCasp9-transfected cells. The following applies: compared to ethanol stimulated cells, 0, 0.1, 1, 10 nmol/l tested, 24 h end point. It is filed as cell-based, human.
Excerpt: Because repopulated rat livers with human iPS-Heps can be reconstituted with both rodent cells and human cells, systems to maximize the human component to 100% of the livers and to purify human cells after perfusion/isolation of livers are beneficial. Suicide systems can be designed to potentiate these processes by efficiently inducing apoptosis in transduce cells. An inducible caspase-9 (iCasp9), encoded by a suicide gene engineered from human caspase-9, was incorporated. […]
as §1, with “For shuttle control, also wells per concentration are seeded. • On day 4, stimulation with AP1903 starts (0; 0,1; 1; 10 nmol/1). Shuttle control includes cells treated with ethanol only.” left out, “Cells are transfected with plasmids pEAlb123-iCasp9-IRES-GFP and pcDNA3-CMV-eGFP (positive control). • Cells are harvested and RNA is isolated. iCASP9 and eGFP-specific PCR primers are used to measure expression (FIG. 14).” left out

As for `CC[C@@H](C(=O)N1CCCC[C@H]1C(=O)O[C@@H](CCc1ccc(OC)c(OC)c1)c1cccc(OCC(=O)NCCNC(=O)COc2cccc([C@@H](CCc3ccc(OC)c(OC)c3)OC(=O)[C@@H]3CCCCN3C(=O)[C@H](CC)c3cc(OC)c(OC)c(OC)c3)c2)c1)c1cc(OC)c(OC)c(OC)c1` [AP1903], in assay [1], the “effect of AP1903 in Caspase 3/7 Assay” value is listed as “did not show any effect”. Also, the “AP1903 concentration giving maximum effect in Caspase 3/7 Assay” value in assay [2] turned out to be 1 nmol/L.
